Where two headings read alike, the source gives them in different places.
Assays:
[1] = tested on: MRSA USA 300 ATCC BAA-1717; assay: Mouse (LD0-20) bacteremia model; type: in vivo, BALB/c mice; settings: IM032 0.3-30 mg/kg PO BID for 7 days; sacrificed at 168 h (Day 7)
Method: Efficacy of IM032 in a Mouse (LD0-20) Bacteremia Model Infected with Methicillin-Resistant Staphylococcus (MRSA USA300) (BAA-1717)
A bacterial strain, USA 300 MRSA BAA-1717, was used to infect BALB/c (female). Test animals were intravenously (IV) inoculated with MRSA ATCC BAA-1717 at a target density of 1×10^6 CFU/mouse. Test substance, IM032 at 0, 0.3, 1, 3, 10, and 30 mg/kg, was administered orally (PO) twice daily (BID) for a total of 7 dosing days.
The reference agents, vancomycin at 3 mg/kg was administered IV once (QD) at 1 h after infection for 7 consecutive days.
With reference to FIG. 9, the animals were IV inoculated with MRSA USA 300 ATCC BAA-1717 at 1.02×10^6 CFU/mouse. IM032 at 0.3, 1, 3, 10, and 30 mg/kg were orally (PO) administrated twice daily (BID) at 1 and 7 h after the infection on Day 1, and then twice daily at 6-hour intervals in the next 6 days for a total of 7 days of dosing. Vancomycin, at 3 mg/kg, was administered intravenously (IV) at 1 h after the infection on Day 1 and then once a day in the next 6 days for a total of 7 days of dosing. […] Statistical significance compared to the respective vehicle control was determined by unpaired student t-tests. […]
With reference to FIG. 10, bacterial density in lung and liver were determined. […] Statistical significance compared to the respective vehicle control was determined by unpaired student t-tests. […]

[2] = tested on: methicillin-resistant S. aureus (MRSA); assay: MRSA skin infection, wound closure; type: in vivo, mice; settings: for wound healing compared with mupirocin and linezolid: 30 mg/kg oral BID for 7 days
Method: FIG. 11B are photos from the top view of mice with skin infection caused by MRSA before (at Day 0) and after different treatments (at Day 7): top left received 2% mupirocin via topical BID for 7 days; top right received 100 mg/kg linezolid via oral BID for 7 days; bottom received 30 mg/kg IM032 via oral BID for 7 days.
Visual wound healing/closure in different treatment groups of mice can be observed in FIG. 11B.

[3] = Solubility in simulated gastric and intestinal fluids; type: physicochemical
From the text: The following table (Table 4) illustrates the solubility of two different compounds, NP16-XL-016 (hereinafter as “IM032”) and NP16-XL-061 (hereinafter as “IM032-C”), in two solutions with different pH values simulating the pH of gastric juice and human intestinal fluid using HCl and phosphate buffer respectively.

With `O=C(/C=C/c1ccccc1Br)Nc1ccc(S(=O)(=O)N2CCCCC2)cc1` [NP16-XL-016, 3-(6-bromophenyl)-N-[4-(1-piperidine-1-sulfonyl)phenyl]-acrylamide] the “bacteria count across major organs” value [1] was “statistically significant reduction in bacteria count across major organs”, the “wound healing compared with mupirocin and linezolid” value ([2]; listed as ALS-4) was “statistically significant improvement in wound healing” and the “wound healing compared with mupirocin and linezolid” value ([2]; listed as IM032) was “best visual wound healing”. For the same compound, the “percentage of wound closure” value ([2]; 30 mg/kg oral twice a day, Day 7) was 63.8%, the solubility ([3]; 0.1N HCl + 0.1% Tween 80 (simulated gastric fluid), pH 2, aqueous with cosolvent or surfactant or cyclodextrin, read-out: Solubility in pH 2 (0.1N HCl + 0.1% Tween 80)-simulating human stomach) was 2.03 µg/mL and the solubility ([3]; pH 7.4, aqueous with cosolvent or surfactant or cyclodextrin, read-out: Solubility in pH 7.4 (KH2PO4 + 0.1% Tween 80)-simulating human intestine) was 1.74 µg/mL. The “solubility higher than that of IM032-Cl” value ([3]; two biorelevant media, pH 2 and pH 7.4) was > 20 ×.

From patent US11040949B2, “Compounds affecting pigment production and methods for treatment of bacterial diseases” (Versitech Limited, priority 2017, dated 2021)
